Tested on: human cardiac organoid cultured in the HEM hydrogel
Assay: Drug reactivity of HEM scaffold-based human cardiac organoid by calcium imaging
Format: cell-based
Settings: 7th day of culture, HEM hydrogel 4 mg/ml
Description: In order to check the reactivity of the human cardiac organoid cultured in the HEM hydrogel (4 mg/ml) to drugs, treatment with two representative drugs (isoproterenol and propranolol) affecting the heart rate was performed on the 7th day of culture, and reaction of the organoid thereto was checked through calcium imaging.

Row | SMILES | beating of cardiac organoid (isoproterenol 1 μM) | beating of cardiac organoid (propranolol 10 μM)
1 | CC(C)NCC(O)c1ccc(O)c(O)c1 (centres unmarked) [isoproterenol] | increased | –
2 | CC(C)NCC(O)COc1cccc2ccccc12 (centres unmarked) [propranolol] | – | decreased

Source: US20230108699A1, “HEART EXTRACELLULAR MATRIX-DERIVED SCAFFOLD FOR CULTURE AND TRANSPLANTATION OF CARDIAC ORGANOID AND METHOD OF PREPARING THE SAME” (CELLARTGEN INC., priority 2020, published 2023)
